Our source for the IC50 and GI50 values is patent publication US20140066394A1, “Substituted 6-(Benzylamino) Purine Riboside Derivatives, Use Thereof and Compositions Containing These Derivatives” (Biopatterns, S.R.O, priority 2009, published 2014).

Structures are written as SMILES.

For test [1], the system named is Peripheral blood neutrophils. Nature of the test: Neutrophil apoptosis, Giemsa stain and light microscopy. Particulars: Homo sapiens, 20 hours culture, read-out: IC50 of inhibition of neutrophil apoptosis. The test is classed as cell-based. Here is the method:
Neutrophils were cultured at 2×10^6 cells/ml for 20 h in RPMI1640 medium containing human serum and antibiotics and a range of concentrations of compound 10. Apoptosis was determined by differential Giemsa staining and light microscopy to determine cells with an apoptotic nuclear morphology. Data are mean±SD of 5 separate experiments.
Effects of the compounds on neutrophil apoptosis were also determined as an indication of utility in diseases where their survival is dysregulated such as systemic vasculitis and chronic inflammatory disease. Peripheral blood neutrophils were cultured for 20 hours in RPMI1640 medium containing 2% human AB serum, 2 mM L-glutamine and antibiotics (100 U/ml penicillin, […] streptomycin) and their apoptosis determined by staining with Giemsa stain and observing an apoptotic morphology by light microscopy (see Pongracz J et al. 1999, J. Biol. Chem. 274: 37329-37334). Compound 10 inhibited neurophil apoptosis with an IC50 of 1 μM (FIG. 4).

Test [2] relates to human skin melanoma G-361. Nature of the test: In vitro cytotoxicity, Calcein AM assay, G-361. It counts as cell-based. The note with it: Homo sapiens, G-361, 72 hours. An excerpt: Low cytotoxicity of the compounds is the major property determining the cosmetic use. One of the parameters used, as the basis for cytotoxicity assays, is the metabolic activity of viable cells. For example, a microtiter assay, which uses the Calcein AM, is now widely used to quantitate cell proliferation and cytotoxicity. For instance, this assay is used in drug screening programs and in chemosensitivity testing. Because only metabolically active cells cleave Calcein AM, these assays detect viable cells exclusively. The quantity of […] Calcein AM corresponds to the number of vital cells in the culture.
Human T-lymphoblastic leukemia cell line CEM; promyelocytic HL-60 and monocytic U937 leukemias; breast carcinoma cell lines MCF-7, BT549, MDA-MB-231; glioblastoma U87MG cells; cervical carcinoma cells HELA; sarcoma cells U2OS and Saos2; hepatocellular carcinoma HepG2; mouse fibroblasts NIH3T3; mouse immortalized bone marrow macrophages B2.4 and B10A.4; P388D1 and L1210 leukemia; B16 and B16F10 melanomas; human osteosarcoma HOS; human myeloid leukemia K-562; human skin melanoma G-361 were used for routine screening of compounds. The cells were maintained in Nunc/Corning 80 cm^2 plastic tissue culture flasks and cultured in cell culture medium (DMEM with 5 g/l glucose, 2 mM glutamine, 100 U/mL penicillin, 100 μg/mL streptomycin, 10% fetal calf serum and sodium bicarbonate).
The cell suspensions that were prepared and diluted according to the particular cell type and the expected target cell density (2.500-30.000 cells per well based on cell growth characteristics) were added by pipette ([…]) into 96/well microtiter plates. Inoculates were allowed a pre-incubation period of 24 hours at 37° C. and 5% CO2 for stabilisation. Four-fold dilutions of the intended test concentration were added at time zero in 20 μl aliquots to the microtiter plate wells. Usually, the compound tested was evaluated at six 4-fold dilutions. In routine testing, the highest well concentration was 100 μM, but it can be the matter of change dependent on the agent. All drug concentrations were examined in duplicates. Incubations of cells with the tested compounds lasted for 72 hours at 37° C., in 5% CO2 atmosphere and 100% humidity. At the end of the incubation period, the cells were assayed by using Calcein AM. Ten microliters of the stock solution were pipetted into each well and incubated for 1 hour. Fluorescence (FD) was measured with the Labsystem FIA Reader Fluoroscan Ascent (UK). The tumour cell survival (GI50) was calculated using the following equitation: TCS=(FDdrug exposed well/mean FDeontrol wells)×100%. The GI50 value, the drug concentration lethal to 50% of the tumour cells, was calculated from the obtained dose response curves.
Zero cytotoxicity of the novel compounds is the basic prerequisite for agricultural and tumor-unrelated applications. The cytoxicity of the novel compounds was tested on a panel of cell lines of different histogenetic and species origin (Table 9). We show herein that equal activities were found in all tumour cell lines tested, however, the non-malignant cells, e.g. NIH3T3 fibroblasts and normal human lymphocytes, were resistant to 2,6-disubstituted purine ribosides induced cytotoxicity. The compounds listed in Tab. 9 can be divided into 2 groups. The first group contains “classical cytokinins” represented by 6-substituted purine ribosides (which are known in the prior art). The second group contains the novel 2,6-disubstituted derivatives of these compounds. […] GI50 for NIH3T3 fibroblasts and normal human lymphocytes was always higher than 100 μM. The novel derivatives show no toxicity to normal and tumour cells in concentrations about 100 μM and thus are more suitable for agricultural applications than “classical cytokinins” (6-substituted purine riboside derivatives).

On to `COc1cccc(CNc2nc(Cl)nc3c2ncn3C2OC(CO)C(O)C2O)c1O` (centres unmarked) [Compound 10, 2-Chloro-6-(2-hydroxy-3-methoxybenzylamino)purine riboside], for which, in test [1], the concentration for half-maximal inhibition (IC50) (commonly the concentration that gives 50% inhibition) was 1 µM. Further, the 50% growth inhibitory concentration (GI50) (usually the concentration that inhibits growth by half) in test [2] was over 100 µM.
